{"source": "patent US10703736B2", "about": "“Configurational stereoisomer of bromadiolone, composition and rodenticide bait comprising same, and method for controlling target rodent pests” (priority 2015, dated 2020)", "key": {"[1]": {"assay_type": "in vivo, rat", "details": "Sprague-Dawley rats, mixture D1,2 56% / D3,4 44%, about 13 mg bromadiolone per kg per os, liver on D1, D3, D7; FIG. 2", "protocol": "(§1) About 0.525 g (+0.025 g) of rat liver is weighed out accurately and placed in a 50 mL polypropylene tube. 10 mL of acetone are added and the suspension is homogenized using an Ultra-Turrax® homogenizer/disperser for a time of about 30 seconds. The homogenizer/disperser shaft is rinsed with hot water and then twice with 20 mL of acetone in a polypropylene tube. The homogenate is centrifuged for 5 minutes at a centrifugation speed of 3000 rpm (revolutions per minute). The supernatant is collected and transferred into a test tube. The sample is subjected to evaporation under a stream of nitrogen (N2) at a temperature of 40° C. so as to form a dry extract.\n(§2) 1 mL of acetonitrile is added to the tube containing the dry extract so as to dissolve it. The acetonitrile solution is washed twice successively with 1 mL of hexane. […]\nOn D1 (D+1), D3 (D+3) and D7 (D+7) after tube feeding, four rats anaesthetized beforehand with isoflurane are euthanized, the liver of the euthanized rats is removed, the bromadiolone is then extracted from the liver and the amount of each of the configurational stereoisomers of bromadiolone is assayed by high-pressure liquid chromatography analysis on a chiral column as described above. The area under the peaks of the chromatogram obtained is measured and each configurational stereoisomer of bromadiolone is quantified by comparison with a calibration curve."}, "[2]": {"test": "Hepatic persistence of each configurational stereoisomer in rats tube-fed with a single stereoisomer", "assay_type": "in vivo, rat", "details": "liver of rats tube-fed with the single enantiomer at 1.5 mg per kilogram; FIG. 4", "protocol": "as §1, §2\nThe liver of the rats treated above is removed for the purposes of comparative analysis of the anticoagulant power of the configurational stereoisomers of bromadiolone, the bromadiolone is then extracted from the liver and the amount of each of the configurational stereoisomers of bromadiolone is assayed by high-pressure liquid chromatography analysis on a chiral column as described above. The area under the peaks of the chromatogram obtained is measured and each configurational stereoisomer of bromadiolone is quantified by comparison with a calibration curve. […]"}, "[3]": {"system": "male laboratory rats (OFA, Sprague-Dawley 200 g)", "test": "Anticoagulant power of each configurational stereoisomer: coagulation time (Quick time) of plasma of tube-fed rats", "assay_type": "in vivo", "details": "1.5 mg of enantiomer per kilogram of rat by tube feeding on D0; blood on D1, D3, D7, D14; FIG. 3", "protocol": "The following are administered to male laboratory rats (OFA, Sprague-Dawley 200 g) by tube feeding on D0: a composition comprising enantiomer E1 in a proportion of 1.5 mg of said enantiomer E1 per kilogram of rat; or a composition comprising enantiomer E2 in a proportion of 1.5 mg of said enantiomer E2 per kilogram of rat; or a composition comprising enantiomer E3 in a proportion of 1.5 mg of said enantiomer E3 per kilogram of rat; or a composition comprising enantiomer E4 in a proportion of 1.5 mg of said enantiomer E4 per kilogram of rat.\nOn these rats, blood is collected on D1, D3, D7 and D14 and measurement of the coagulation time (Quick time, expressed in seconds) of the plasma is performed using the “Neoplastine CI Determination of Prothrombin Time” kit (Diagnostica Stago, Asnibre, France) by measurement on a Thrombotimer Option 2 Plus machine (Behnk Electronik, Norderstedt, Germany)."}}, "note": "Entries after “also recorded” stand apart in the source; their conditions may differ.", "data": [{"smiles": "O=c1oc2ccccc2c(O)c1C(CC(O)c1ccc(-c2ccc(Br)cc2)cc1)c1ccccc1", "note": "(single isomer, unassigned) [enantiomer E1, 3-[3-(4′-bromo[1,1′-biphenyl]-4-yl)-3-hydroxy-1-phenylpropyl]-4-hydroxy-2H-1-benzopyran-2-one]", "values": [{"measurement": "persistence in rat liver (hepatic concentration)", "setting": "[1]", "value": "longest persistence in rat liver of the four enantiomers"}, {"measurement": "hepatic persistence of each enantiomer", "setting": "[2]", "value": "highest hepatic persistence among the bromadiolone enantiomers; also recorded: higher than the persistence in the liver of target rodent pests of said enantiomer E2 and higher than the persistence in the liver of target rodent pests of each enantiomer of said diastereoisomer D3,4"}, {"measurement": "anticoagulant effect / anticoagulant activity (coagulation time, Quick time)", "setting": "[3]", "value": "sufficient to maintain an anticoagulant effect up to D7; also recorded: higher anticoagulant activity than the anticoagulant activity of said enantiomer E2 and also higher than the anticoagulant activities of said two enantiomers of said diastereoisomer D3,4"}]}, {"smiles": "O=c1oc2ccccc2c(O)c1C(CC(O)c1ccc(-c2ccc(Br)cc2)cc1)c1ccccc1", "note": "(single isomer, unassigned) [diastereoisomer D1,2, 3-[3-(4′-bromo[1,1′-biphenyl]-4-yl)-3-hydroxy-1-phenylpropyl]-4-hydroxy-2H-1-benzopyran-2-one]", "values": [{"measurement": "persistence in rat liver (hepatic concentration)", "setting": "[1]", "value": "the more persistent in the liver of target rodents"}]}]}
